Experimental data from patent US11285219B2, “Peptide-oligourea hybrid compounds” (UREKA SARL, priority 2019, dated 2022).
“Also recorded” adds a separate entry of the source. Numbered stars: 1 amine (or outer) side, 2 acyl side, 3 side chain; on linkers, the order of the positions; unused ones are H or OH. Bridge positions count the residues as written; N and C are the ends. Peptide text beside a SMILES is read from it. I, II: the chains in the order shown. X4 = C[C@@H](CNC(=O)[*:1])NC(=O)NC[C@H](CCC(=O)O)NC(=O)NC[C@H](Cc1ccc(O)cc1)N[*:2]; X3 = C[C@@H](CNC(=O)[*:1])NC(=O)NC[C@H](Cc1ccc(O)cc1)NC(=O)NC[C@H](C)N[*:2]; X8 = CC(CNC(=O)NC(C)CNC(=O)[*:2])NC(=O)NCC(C)N[*:1]

Legend:
[1] = test system: normal mice (C57BL/6J); experiment: Blood glucose experiment in healthy mice; assay type: in vivo, mouse; design: key to In vivo activity (indicator): + = active; +++: + + + = more active; settings: for effect on blood glucose concentration: fed normal mice, 5 μg/mouse i.v., monitored 6 h; for In vivo activity (indicator): blood glucose, mice, i.v.
Description: In the first study, we evaluated the effect of the analogues on the blood glucose concentration of normal mice (FIG. 4). The fed mice were treated with the analogues and their blood glucose concentration was monitored before and after dosing for 6 h. […] Indeed, a decrease of blood glucose concentration is observed after 30 min and the effect is preserved for 4 h after dosing.
Blood glucose experiment in healthy mice. After the acclimation period (at least 5 days), mice (male C57BL/6J mice (Charles River laboratories) (8 weeks old, 20-25 g)) were randomized into 10 groups (n=3/group) according to their body weight. They were acutely treated via i.v. route at 10 AM (5 μg/mouse). Blood glucose was measured before dosing and at 30 min, 1, 2, 4, 6 h after dosing in fed conditions.

[2] = biological target: NEP 24.11 (Homo sapiens, UniProt P08473); experiment: NEP 24.11 enzymatic degradation assay; settings: pH 8
Description: Enzymatic and mouse plasma degradation studies.
Enzymatic degradation (NEP 24.11). Stock solutions of the oligomers were prepared at a concentration of 400 μM in a solution of 50 mM HEPES buffer, 50 mM NaCl, 0.05% Tween-80, pH 8.0. Stock solution of NEP 24.11 was prepared at a concentration of 100 μg/mL in water. Stability of oligomers to NEP 24.11 was assessed by conducting protease reaction in a 96-well plates at 20° C. […] Each compound was also incubated in the absence of the enzyme (12 μL of HEPES buffer and 38 μL of oligomer). At the indicated time (1, 2, 4, 6 and 22 hours) an aliquot of 10 μL was removed from each experimental reaction and pipetting into 100 μL of 1% TFA solution to quench the reaction, (t=0 min was determined using the reaction without enzyme). A portion of the quenched reaction solution was analyzed by HPLC. The time course of peptide degradation was determined by integrating the area of each peak in a series of HPLC traces.

[3] = biological target: T1, mouse GLP-1 receptor endogenously expressed in βTC6 cells (Mus musculus, UniProt O35659); experiment: cAMP production functional assay (HTRF), agonist activity at GLP-1R; assay type: cell-based; settings: for Potency (%), percentage of potency (cAMP production) compared to GLP-1-G^2: Table 2; for Potency (%), percentage of potency compare to GLP-1-G^2: cAMP production, Table 1; for EC50: receptor-mediated cAMP production, βTC6 cells, read-out: EC50 (nM), GLP-1R potency
T1 construct: host or cells: βTC6 cells
T1 sequence (O35659 22-463): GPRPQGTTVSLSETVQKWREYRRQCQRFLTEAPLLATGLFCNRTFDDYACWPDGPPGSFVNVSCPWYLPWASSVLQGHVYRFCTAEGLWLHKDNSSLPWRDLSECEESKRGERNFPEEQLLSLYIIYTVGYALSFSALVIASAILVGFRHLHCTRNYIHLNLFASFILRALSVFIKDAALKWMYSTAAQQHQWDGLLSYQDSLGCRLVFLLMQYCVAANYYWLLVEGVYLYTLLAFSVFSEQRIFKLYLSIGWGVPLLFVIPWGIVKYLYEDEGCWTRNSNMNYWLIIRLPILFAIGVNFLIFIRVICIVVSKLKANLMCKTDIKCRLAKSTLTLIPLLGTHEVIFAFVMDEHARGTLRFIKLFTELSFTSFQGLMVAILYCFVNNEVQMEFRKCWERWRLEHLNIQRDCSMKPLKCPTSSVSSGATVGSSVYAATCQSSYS
Description: The agonistic activity of these hybrids were obtained by functional assays using cells expressing the […] and by measuring the receptor-mediated cAMP produced (see supporting information).
In vitro pharmacology (EC50). […] Following incubation, the cells were lysed and the fluorescence acceptor (D2-labeled cAMP) and fluorescence donor (anti-cAMP antibody labeled with europium cryptate) were added.

NEP 24.11, sequence (P08473 whole entry): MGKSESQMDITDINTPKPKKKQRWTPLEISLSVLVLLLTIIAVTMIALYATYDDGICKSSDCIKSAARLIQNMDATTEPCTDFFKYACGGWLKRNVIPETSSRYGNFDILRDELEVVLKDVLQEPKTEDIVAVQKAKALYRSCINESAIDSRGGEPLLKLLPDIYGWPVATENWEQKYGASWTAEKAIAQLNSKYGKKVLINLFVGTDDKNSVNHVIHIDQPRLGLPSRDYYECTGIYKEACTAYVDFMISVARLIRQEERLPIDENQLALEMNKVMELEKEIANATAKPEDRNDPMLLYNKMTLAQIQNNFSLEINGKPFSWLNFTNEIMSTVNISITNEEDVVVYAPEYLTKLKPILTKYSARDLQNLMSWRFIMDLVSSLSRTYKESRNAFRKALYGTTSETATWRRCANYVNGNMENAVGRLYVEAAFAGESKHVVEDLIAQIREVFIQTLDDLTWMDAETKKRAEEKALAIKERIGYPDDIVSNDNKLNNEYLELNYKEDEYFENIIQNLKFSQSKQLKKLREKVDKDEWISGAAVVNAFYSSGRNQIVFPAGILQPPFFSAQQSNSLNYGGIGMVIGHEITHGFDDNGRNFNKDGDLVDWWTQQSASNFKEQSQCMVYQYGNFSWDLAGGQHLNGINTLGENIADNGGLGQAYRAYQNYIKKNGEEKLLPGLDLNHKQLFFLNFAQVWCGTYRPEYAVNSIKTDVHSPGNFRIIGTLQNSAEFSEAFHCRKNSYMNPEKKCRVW

SMILES	Potency (%), percentage of potency compare to GLP-1-G^2 [3] [%]	effect on blood glucose concentration [1]	half-life at […] [2] [h]	loss of affinity with GLP-1R compared to the native peptide [3]	Potency (%), percentage of potency (cAMP production) compared to GLP-1-G^2 [3] [%]	EC50 [3] [nM]	In vivo activity (indicator) [1]
CC[C@H](C)[C@H](NC(=O)[C@H](Cc1ccccc1)NC(=O)[C@H](CCC(=O)O)NC(=O)[C@H](CCCCN)NC(=O)[C@H](C)NC(=O)[C@H](C)NC(=O)[C@H](CCC(N)=O)NC(=O)CNC(=O)[C@H](CCC(=O)O)NC(=O)[C@H](CC(C)C)NC(=O)[C@H](Cc1ccc(O)cc1)NC(=O)NC[C@H](C)NC(=O)NC[C@H](C)NC(=O)N[C@@H](CNC(=O)[C@H](CO)NC(=O)[C@@H](NC(=O)[C@H](Cc1ccccc1)NC(=O)[C@@H](NC(=O)CNC(=O)[C@H](CCC(=O)O)NC(=O)CNC(=O)[C@@H](N)Cc1c[nH]cn1)[C@@H](C)O)[C@@H](C)O)CC(=O)O)C(=O)N[C@@H](C)C(=O)N[C@@H](Cc1c[nH]c2ccccc12)C(=O)N[C@@H](CC(C)C)C(=O)N[C@H](C(=O)N[C@@H](CCCCN)C(=O)NCC(=O)N[C@@H](CCCNC(=N)N)C(=O)NCC(N)=O)C(C)C [Compound 2, GG2[D^UαA^UA^U]^9-12]	2	no activity; also recorded: no effect	3.6	over a hundred fold loss	2	13	
CC[C@H](C)[C@H](NC(=O)[C@H](Cc1ccccc1)NC(=O)[C@H](CCC(=O)O)NC(=O)[C@H](CCCCN)NC(=O)[C@H](C)NC(=O)[C@H](C)NC(=O)[C@H](CCC(N)=O)NC(=O)CNC(=O)[C@H](CCC(=O)O)NC(=O)NC[C@H](C)NC(=O)NC[C@H](Cc1ccc(O)cc1)NC(=O)NC[C@H](C)NC(=O)[C@@H](NC(=O)[C@H](CC(=O)O)NC(=O)[C@H](CO)NC(=O)[C@@H](NC(=O)[C@H](Cc1ccccc1)NC(=O)[C@@H](NC(=O)CNC(=O)[C@H](CCC(=O)O)NC(=O)CNC(=O)[C@@H](N)Cc1c[nH]cn1)[C@@H](C)O)[C@@H](C)O)C(C)C)C(=O)N[C@@H](C)C(=O)N[C@@H](Cc1c[nH]c2ccccc12)C(=O)N[C@@H](CC(C)C)C(=O)N[C@H](C(=O)N[C@@H](CCCCN)C(=O)NCC(=O)N[C@@H](CCCNC(=N)N)C(=O)NCC(N)=O)C(C)C [Compound 5, GG2[A^UY^UA^U]^11-14] (I: EGQAAKEFIAWLVKGRG-NH2 / II: H-HGEGTFTSDV; linker I:N-II:C via X3)	15	efficacy but no improvement	2.9		15		+
CC[C@H](C)[C@H](NC(=O)[C@H](Cc1ccccc1)NC(=O)[C@H](CCC(=O)O)NC(=O)[C@H](CCCCN)NC(=O)[C@H](C)NC(=O)[C@H](C)NC(=O)NC[C@H](C)NC(=O)NC[C@H](CCC(=O)O)NC(=O)NC[C@H](Cc1ccc(O)cc1)NC(=O)[C@H](Cc1ccc(O)cc1)NC(=O)[C@H](CO)NC(=O)[C@H](CO)NC(=O)[C@@H](NC(=O)[C@H](CC(=O)O)NC(=O)[C@H](CO)NC(=O)[C@@H](NC(=O)[C@H](Cc1ccccc1)NC(=O)[C@@H](NC(=O)CNC(=O)[C@H](CCC(=O)O)NC(=O)CNC(=O)[C@@H](N)Cc1c[nH]cn1)[C@@H](C)O)[C@@H](C)O)C(C)C)C(=O)N[C@@H](C)C(=O)N[C@@H](Cc1c[nH]c2ccccc12)C(=O)N[C@@H](CC(C)C)C(=O)N[C@H](C(=O)N[C@@H](CCCCN)C(=O)NCC(=O)N[C@@H](CCCNC(=N)N)C(=O)NCC(N)=O)C(C)C [Compound 9, GG2[Y^UE^UA^U]^14-17] (I: AAKEFIAWLVKGRG-NH2 / II: H-HGEGTFTSDVSSY; linker I:N-II:C via X4)	135	efficacy but no improvement			135	0.18	+

Continued, in another order:

Potency (%), percentage of potency compare to GLP-1-G^2 [3] [%]	SMILES	effect on blood glucose concentration [1]	half-life at […] [2] [h]	loss of affinity with GLP-1R compared to the native peptide [3]	Potency (%), percentage of potency (cAMP production) compared to GLP-1-G^2 [3] [%]	EC50 [3] [nM]	In vivo activity (indicator) [1]
<0.01	CC[C@H](C)[C@H](NC(=O)NCC(C)NC(=O)NCC(C)NC(=O)NCC(C)NC(=O)[C@H](C)NC(=O)[C@H](CCC(N)=O)NC(=O)CNC(=O)[C@H](CCC(=O)O)NC(=O)[C@H](CC(C)C)NC(=O)[C@H](Cc1ccc(O)cc1)NC(=O)[C@H](CO)NC(=O)[C@H](CO)NC(=O)[C@@H](NC(=O)[C@H](CC(=O)O)NC(=O)[C@H](CO)NC(=O)[C@@H](NC(=O)[C@H](Cc1ccccc1)NC(=O)[C@@H](NC(=O)CNC(=O)[C@H](CCC(=O)O)NC(=O)CNC(=O)[C@@H](N)Cc1c[nH]cn1)[C@@H](C)O)[C@@H](C)O)C(C)C)C(=O)N[C@@H](C)C(=O)N[C@@H](Cc1c[nH]c2ccccc12)C(=O)N[C@@H](CC(C)C)C(=O)N[C@H](C(=O)N[C@@H](CCCCN)C(=O)NCC(=O)N[C@@H](CCCNC(=N)N)C(=O)NCC(N)=O)C(C)C (stereo partly shown) [Compound 15, GG2[A^UA^UA^U]^19-22] (I: H-HGEGTFTSDVSSYLEGQA / II: IAWLVKGRG-NH2; linker I:C-II:N via X8)						
0.01	CC(C)C[C@H](NC(=O)[C@H](Cc1ccc(O)cc1)NC(=O)[C@H](CO)NC(=O)[C@H](CO)NC(=O)[C@@H](NC(=O)[C@H](CC(=O)O)NC(=O)[C@H](CO)NC(=O)[C@@H](NC(=O)[C@H](Cc1ccccc1)NC(=O)[C@@H](NC(=O)CNC(=O)[C@H](CCC(=O)O)NC(=O)CNC(=O)[C@@H](N)Cc1c[nH]cn1)[C@@H](C)O)[C@@H](C)O)C(C)C)C(=O)N[C@@H](CCC(=O)O)C(=O)NCC(=O)N[C@@H](CCC(N)=O)C(=O)N[C@@H](C)C(=O)N[C@@H](C)C(=O)N[C@@H](CCCCN)C(=O)N[C@@H](CCC(=O)O)C(=O)N[C@@H](Cc1ccccc1)C(=O)N[C@@H](C)CNC(=O)N[C@@H](C)CNC(=O)N[C@@H](C)CNC(=O)N[C@H](C(=O)N[C@@H](CCCCN)C(=O)NCC(=O)N[C@@H](CCCNC(=N)N)C(=O)NCC(N)=O)C(C)C [Compound 17, GG2[A^UA^UA^U]^23-26]						
<0.01	CC[C@H](C)[C@H](NC(=O)[C@H](Cc1ccccc1)NC(=O)[C@H](CCC(=O)O)NC(=O)[C@H](CCCCN)NC(=O)[C@H](C)NC(=O)[C@H](C)NC(=O)[C@H](CCC(N)=O)NC(=O)CNC(=O)[C@H](CCC(=O)O)NC(=O)[C@H](CC(C)C)NC(=O)[C@H](Cc1ccc(O)cc1)NC(=O)[C@H](CO)NC(=O)[C@H](CO)NC(=O)[C@@H](NC(=O)[C@H](CC(=O)O)NC(=O)[C@H](CO)NC(=O)[C@@H](NC(=O)[C@H](Cc1ccccc1)NC(=O)[C@@H](NC(=O)CNC(=O)[C@H](CCC(=O)O)NC(=O)CNC(=O)[C@@H](N)Cc1c[nH]cn1)[C@@H](C)O)[C@@H](C)O)C(C)C)C(=O)NC(C)CNC(=O)NC(C)CNC(=O)NC(C)CNC(=O)N[C@@H](CCCCN)C(=O)NCC(=O)N[C@@H](CCCNC(=N)N)C(=O)NCC(N)=O (stereo partly shown) [Compound 18, GG2[A^UA^UA^U]^24-27]						
